Assay results published in patent US7273880B2, “Selective NPY (Y5) antagonists” (H. Lunbeck A/S, priority 1999, dated 2007).
Where a name gives a salt, the structure may show the parent alone.

Columns and labels:
[1] = target: T1, human Y5 receptor (hNPY-5) (Homo sapiens, UniProt Q15761); experiment: Radioligand binding to membranes, cloned human Y5 receptor; settings: cloned human NPY Y5 receptor, radioligand competition binding; Tables 1-3; read-out: Ki, nM hNPY-5
T1 construct: expressed in transfected cells; host or cells: mouse fibroblast LM(tk-) cells, e.g. L-hY5-7 (ATCC CRL-11995)
T1 sequence (Q15761 1-445): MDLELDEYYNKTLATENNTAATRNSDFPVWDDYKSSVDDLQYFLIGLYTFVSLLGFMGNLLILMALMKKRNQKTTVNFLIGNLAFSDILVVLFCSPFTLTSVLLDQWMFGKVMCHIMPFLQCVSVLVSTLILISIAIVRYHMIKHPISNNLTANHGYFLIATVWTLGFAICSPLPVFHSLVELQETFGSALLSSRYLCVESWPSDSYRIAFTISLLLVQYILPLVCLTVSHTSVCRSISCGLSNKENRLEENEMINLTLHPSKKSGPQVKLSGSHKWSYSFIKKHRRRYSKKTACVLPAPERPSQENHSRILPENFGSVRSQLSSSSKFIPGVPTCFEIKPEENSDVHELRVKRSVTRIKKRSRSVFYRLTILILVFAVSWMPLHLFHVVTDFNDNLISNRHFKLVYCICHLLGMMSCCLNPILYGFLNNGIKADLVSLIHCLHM
Method: Binding of the compounds of the present invention to human Y1, Y2, Y4, and Y5 receptors was evaluated using stably transfected 293 or LM(tk-) cells as described above. Stably transfected cell lines which may be used for binding assays include, for example, for the human Y1 receptor, 293-hY1-5 (deposited Jun. 4, 1996, under ATCC Accession No. CRL-12121), for the human Y2 receptor, 293-hY2-10 (deposited Jan. 27, 1994, under ATCC Accession No. CRL-11537), for the human Y4 receptor, L-hY4-3 (deposited Jan. 11, 1995, under ATCC Accession No. CRL-11779), and for human Y5 receptor, L-hY5-7 (deposited Nov. 15, 1995, under ATCC Accession No. CRL-11995). These cell lines were deposited with the American Type Culture Collection (ATCC), 10801 University Blvd., Manassas, Va. 20110-2209, U.S.A. under the provisions of the Budapest Treaty for the International Recognition of the Deposit of Microorganisms for the Purposes of Patent Procedure.
Membranes were harvested from COS-7 cells 48 hours after transient transfection. Adherent cells were washed twice in ice-cold phosphate buffered saline (138 mM NaCl, 8.1 mM Na2HPO4, 2.5 mM KCl, 1.2 mM KH2PO4, 0.9 mM CaCl2, 0.5 mM MgCl2, pH 7.4) and lysed by sonication in ice-cold sonication buffer (20 mM Tris-HCl, 5 mM EDTA, pH 7.7). Large particles and debris were cleared by low speed centrifugation (200×g, 5 min, 4° C.). Membranes were collected from the supernatant fraction by centrifugation (32,000×g, 18 min, 4° C.), washed with ice-cold hypotonic buffer, and collected again by centrifugation (32,000×g, 18 min, 4° C.). The final membrane pellet was resuspended by sonication into a small volume of ice-cold binding buffer (˜1 ml for every 5 plates: 10 mM NaCl, 20 mM HEPES, 0.22 mM KH2PO4, 1.26 mM CaCl2, 0.81 mM MgSO4, pH 7.4). Protein concentration was measured by the Bradford method (Bradford, 1976) using Bio-Rad Reagent, with bovine serum albumin as a standard. Membranes were held on ice for up to one hour and used fresh, or flash-frozen and stored in liquid nitrogen.
Membranes were prepared similarly from 293, LM(tk-), and NIH-3T3 cells. To prepare membranes from baculovirus infected cells, 2×10^7 Sf21 cells were grown in 150 mm tissue culture dishes and infected with a high-titer stock of hY5BB3. Cells were incubated for 2-4 days at 27° C., no CO2 before harvesting and membrane preparation as described above.
Membrane suspensions were diluted in binding buffer supplemented with 0.1% bovine serum albumin to yield an optimal membrane protein concentration so that ^125I-PYY (or alternative radioligand such as ^125I-NPY, ^125I-PYY3-36, or ^125I-[Leu^31Pro^34]PYY) bound by membranes in the assay was less than 10% of ^125I-PYY (or alternative radioligand) delivered to the sample (100,000 dpm/sample=0.08 nM for competition binding assays). ^125I-PYY (or alternative radioligand) and peptide competitors were also diluted to desired concentrations in supplemented binding buffer. Individual samples were then prepared in 96-well polypropylene microtiter plates by mixing 125I-PYY (25 μL) (or alternative radioligand), competing peptides or supplemented binding buffer (25 μL), and finally, membrane suspensions (200 μL). Samples were incubated in a 30° C. water bath with constant shaking for 120 min. Incubations were terminated by filtration over Whatman GF/C filters (pre-coated with 1% polyethyleneimine and air-dried before use), followed by washing with 5 mL of ice-cold binding buffer. Filter-trapped membranes were impregnated with MeltiLex solid scintillant (Wallac, Turku, Finland) and counted for ^125I in a Wallac Beta-Plate Reader. Alternatively, incubations were carried out in GF/C filter plates (pre-coated with 1% polyethyleneimine and air-dried before use), followed by vacuum filtration and three washes of 300 μL of ice-cold binding buffer. 50 μL of UltimaGold (Packard) scintillant were added and counted for ^125I in a Wallac MicroBeta Trilux. […]

| SMILES | melting point [°C] | Ki [1] [nM] |
| --- | --- | --- |
| COc1cccc2c1OCCc1sc(NC[C@H]3CC[C@H](NS(C)(=O)=O)CC3)nc1-2 (as salt: hydrochloride) [Example 65, trans-N2-(4-Methylsulfonylamino)cyclohexylmethyl-7-methoxy-4,5-dihydro-benzo[2,3]oxepino[4,5-d][1,3]-thiazol-2-amine hydrochloride] | 225 to 230 | – |
| COc1ccc2c(c1)CCCc1sc(N[C@H]3CC[C@H](CNS(=O)(=O)N4CCOCC4)CC3)nc1-2 (as salt: hydrochloride) [Example 78, trans-N2-(4-(1-Morpholinylsulfonylaminomethyl)-cyclohexyl-8-methoxy-5,6-dihydro-4H-benzo[6,7]-cyclohepta[d][1,3]thiazol-2-amine hydrochloride] | 130 to 132 | – |
| CS(=O)(=O)NCC1CCC(Nc2nc3c(s2)COc2ccccc2-3)CC1 (centres unmarked) (as salt: salt) [Example 70, 2-(4-Methylsulfonylaminomethyl)cyclohexylamino-4H-chromeno[4,3-d]thiazole] | 140 to 144 | – |
| COc1ccc2c(c1)CCCc1sc(N[C@H]3CC[C@H](CNS(=O)(=O)C(C)C)CC3)nc1-2 (as salt: salt) [Example 73, trans-1-Aza-4,5-dihydro-2-(4-isopropylsulfonyl-aminomethyl)-cyclohexylamino-8-methoxy-3-thia-benzo[e]-azulene] | 87 to 89 | – |
| COc1ccc(C)cc1S(=O)(=O)N[C@H]1CC[C@H](CNc2nc3c(s2)CCOc2ccccc2-3)CC1 [Example 51, trans-1-Aza-4,5-dihydro-2-{4-(2-methoxy-5-methyl-phenyl)-sulfonylamino}cyclohexylmethylamino-6-oxa-3-thia-benzo[e]azulene] | 220 to 224 | 8.3 |
| CCS(=O)(=O)N[C@H]1CC[C@H](CNc2nc3c(s2)CCOc2cc(OC)ccc2-3)CC1 [Example 60, trans-N2-(4-Ethylsulfonylamino)cyclohexylmethyl-8-methoxy-4,5-dihydro-benzo[2,3]oxepino[4,5-d][1,3]thiazol-2-amine] | 170 to 172 | 31 |
| COc1ccc2c(c1)OCCc1sc(NC[C@H]3CC[C@H](NS(C)(=O)=O)CC3)nc1-2 [Example 61, trans-1-Aza-4,5-dihydro-8-methoxy-2-{4-methyl-sulfonyl-amino)cyclohexylmethylamino-6-oxa-3-thia-benzo [e]azulene] | 65 to 70 | 162 |
| CCS(=O)(=O)N[C@H]1CC[C@H](CNc2nc3c(s2)CCOc2ccc(OC)cc2-3)CC1 [Example 64, trans-N2-(4-Ethylsulfonylamino)cyclohexylmethyl-9-methoxy-4,5-dihydro-benzo[2,3]oxepino[4,5-d][1,3]thiazol-2-amine] | 165 to 170 | 12.2 |

Continued, values first:

| melting point [°C] | Ki [1] [nM] | SMILES |
| --- | --- | --- |
| 140 to 141 | – | O=S(=O)(CC(F)(F)F)NCCCCNc1nc2c(s1)CCCc1ccc(F)cc1-2 (as salt: TFA) [Example 39, 1-Aza-9-fluoro-4,5-dihydro-2-(4-(2,2,2-trifluoroethyl)-sulfonylamino)butylamino-3-thia-benzo[e]azulene] |
| 94 to 97 | – | CCOC(=O)N[C@H]1CC[C@H](CNc2nc3c(s2)CCCc2ccc(F)cc2-3)CC1 (as salt: hydrochloride) [Example 68, trans-N2-(4-Ethoxycarbonylamino)cyclohexylmethyl-9-fluoro-5,6-dihydro-4H-benzo[6,7]cyclohepta[d][1,3]-thiazol-2-amine hydrochloride] |
| 165 to 167 | – | O=S(=O)(N[C@H]1CC[C@H](Nc2nc3c(s2)CCCc2ccc(F)cc2-3)CC1)c1cccnc1 (as salt: salt) [Example 54, trans-1-Aza-9-fluoro-4,5-dihydro-2-(4-(3-pyridyl-sulfonylamino)cyclohexyl)amino-3-thia-benzo[e]azulene] |
| 84 to 86 | – | O=S(=O)(NCCCCCNc1nc2c(s1)CCCc1ccc(F)cc1-2)c1cccnc1 (as salt: salt) [Example 55, 1-Aza-9-fluoro-4,5-dihydro-2-(5-(3-pyridyl)sulfonyl-amino)pentylamino-3-thia-benzo[e]azulene] |
| 101 to 103 | – | O=S(=O)(NCCCCNc1nc2c(s1)CCCc1ccc(F)cc1-2)c1cccnc1 (as salt: salt) [Example 56, 1-Aza-9-fluoro-4,5-dihydro-2-(4-(3-pyridyl)sulfonyl-amino)butylamino-3-thia-benzo[e]azulene] |
| 127 to 129 | – | O=S(=O)(NC[C@H]1CC[C@H](Nc2nc3c(s2)CCCc2ccc(F)cc2-3)CC1)c1cccnc1 (as salt: salt) [Example 59, trans-1-Aza-9-fluoro-4,5-dihydro-2-(4-(3-pyridyl)-sulfonylaminomethyl)cyclohexylamino-3-thia-benzo[e]-azulene] |
| 94 to 97 | – | COc1ccc2c(c1)CCCc1sc(NC[C@H]3CC[C@H](NS(C)(=O)=O)CC3)nc1-2 (as salt: salt) [Example 71, trans-1-Aza-4,5-dihydro-8-methoxy-2-(4-methylsulfonyl-amino)cyclohexylmethylamino-3-thia-benzo[e]azulene] |
| 106 to 107 | – | CC(C)N(C=O)C[C@H]1CC[C@H](Nc2nc3c(s2)CCCc2ccc(F)cc2-3)CC1 (as salt: salt) [Example 83, trans-1-Aza-9-fluoro-4,5-dihydro-2-(4-(N-isopropyl-formamido)methyl)cyclohexylamino-3-thia-benzo[e]-azulene] |
| 70 to 75 | 2.9 | COc1ccc(C)cc1S(=O)(=O)NCCCCC(=O)Nc1nc2c(s1)CCCc1ccc(F)cc1-2 [Example 49, N1-(9-Fluoro-5,6-dihydro-4H-benzo[6,7]cyclohepta-[d][1,3]-thiazol-2-yl)-5-[(2-methoxy-5-methylphenyl)-sulfonyl]-aminopentanamide] |
| 159 to 162 | 66 | CS(=O)(=O)NCCOCCNc1nc2c(s1)CCCc1ccc(F)cc1-2 [Example 57, 1-Aza-9-fluoro-4,5-dihydro-2-{2-(2-methylsulfonyl-amino)ethoxy}ethylamino-3-thia-benzo[e]azulene] |
| 158 to 160 | 1.8 | O=S(=O)(N[C@H]1CC[C@H](CNc2nc3c(s2)CCCc2ccc(F)cc2-3)CC1)c1cccnc1 [Example 62, trans-1-Aza-9-fluoro-4,5-dihydro-2-{4-(3-pyridyl)sulfonylamino}cyclohexylmethylamino-3-thia-benzo[e]azulene] |
